According to US7375124B2, “Use of α-phenylthiocarboxylic and α-phenyloxycarboxylic acids with serum-glucose-lowering and serum-lipid-lowering activity” (Sigma-Tau Industrie Farmaceutiche Riunite S.p.A., priority 2002, dated 2008):

How the values were obtained:
mPPARαLBD/Gal4DBD = target: T1, mPPARαLBD/Gal4DBD (Mus musculus, UniProt P23204); assay: Transactivation assay mediated by mPPARαLBD/Gal4DBD in COS-7 cells (CAT reporter); format: cell-based
T1 construct: expressed in transfected cells; host or cells: COS-7 (monkey kidney fibroblasts)
T1 sequence (P23204 239-466 limits assumed): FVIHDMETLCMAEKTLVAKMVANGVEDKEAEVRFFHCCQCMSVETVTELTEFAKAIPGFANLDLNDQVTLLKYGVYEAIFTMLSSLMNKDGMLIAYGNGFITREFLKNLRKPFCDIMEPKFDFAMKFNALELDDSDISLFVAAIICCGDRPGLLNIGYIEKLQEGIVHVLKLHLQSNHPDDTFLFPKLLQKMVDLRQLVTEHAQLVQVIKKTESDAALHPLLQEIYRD
Excerpt: In this model a transactivation assay is used in which the expression vector mPPARαLBD/Gal4 DBD allows the synthesis by the transfected cell of a chimeric protein, in which the ligand binding domain (LBD) of PPARα is fused with the DNA binding domain (DBD) of the transcription factor GAL4 of yeast [Luckow B. et al., Nucleic Acids Res. 15, 5490 (1987)]. Simultaneously, a plasmid (pG5CAT) is transfected which contains 5 copies of the high-affinity binding site for GAL4 (also called UAS, upstream activating sequence), upstream of the viral promoter E1b fused with the CAT reporter gene [Moya-Camarena S. Y. et al., J. Lipid Res. 40 (8), 1426-33 (1999)]. This model eliminates interference by possible endogenous receptors.
This is due to the fact that the activation of E1b and the production of CAT will occur exclusively thanks to the interaction of GAL4 DBD with its own response element (UAS). Since the transcription factor GAL4 is not expressed in […] cells, transactivation of the reporter gene can take place only when, as a result of the interaction of a ligand with the LBD of PPARα, the chimeric protein PPARα/GAL4 recognises the UAS sequence on the plasmid pG5CAT. Together with the expression vector and the reporter vector the cells were also transfected with the plasmid pCH110 which provides the internal control for the efficiency of transfection and the normalisation of the results.
A monkey kidney fibroblast cell line (COS-7) was used [Elbrecht A. et al., J. Biol. Chem. 274 (12), 7913-22 (1999)]. The cells were co-transfected with the reporter vector, the expression plasmid coding for the fusion protein Gal4 DBD/PPARαLBD and the control vector pCH110. The cells were exposed to increasing concentrations of the study compounds and CAT activity was evaluated. Untreated cells were used as controls.
Monkey kidney fibroblasts (COS-7) were cultured according to the usual cell culture techniques, at 37° C. in a 5% v/v carbon dioxide atmosphere using as the growth medium DMEM (Dulbecco's modified Eagle's medium) modified with 3.7 g/l of sodium bicarbonate, 4 mM L-glutamine, 4.5 g/l of glucose, 1 mM sodium pyruvate and 10% v/v of foetal bovine serum, in the presence of streptomycin 100 μg/ml and penicillin 100 U/ml final.
The cells were co-transfected using the transfection reagent FuGENE6 (Roche), consisting of a defined mixture of lipids capable of complexing the DNA and of transporting it into the cells. Twenty-four hours prior to transfection the cells were plated at a density of 1.2×10^5 cells/well in 12-well plates and maintained at 37° C. in a 5% v/v CO2 atmosphere. […] Briefly, the transfection mixture containing 0.8 μg of the expression vector, 1.6 μg of the reporter vector, 0.8 μg of the control vector and 9 μl of the FuGENE6 reagent per well was added directly to the cells in the presence of culture medium devoid of serum. After 5 hours, the transfection medium was replaced by 1 ml of culture medium complete with serum and antibiotics in the presence or absence of the molecules to be tested at 3 different concentrations (2, 20 and 100 μM). Wy-14,643 (2 μM), a known ligand of PPARα, was used as the positive reference compound.
After 48 hours' incubation at 37° C. in a 5% v/v CO2 atmosphere, the cells were washed twice with 1 ml of phosphate buffer (PBS) and removed mechanically from the wells in TEN buffer (Tris[hydroxymethyl]aminomethane 10 mM pH 8, ethylenediamine-tetraacetic acid 1 mM pH 8, sodium chloride 0.1 M). After centrifuging for 3 minutes at 1000 rpm, the cells were resuspended in 65 μl of lysis buffer (Tris-HCl 0.25 M, pH 8) and then lysed thanks to three rapid freeze-thaw cycles. The insoluble cellular materials (debris) were removed by centrifuging at 15,000 rpm for 15 minutes at 4° C., and the supernatant was recovered and used for the CAT and β-galactosidase activity assays. […]

- Activation of reporter gene CAT as a percentage of the reference compound (WY-14,643 2 μM = 100%) (mPPARαLBD/Gal4DBD; 2 μM): 69.7%
- Activation of reporter gene CAT as a percentage of the reference compound (WY-14,643 2 μM = 100%) (mPPARαLBD/Gal4DBD; 20 μM): 103.6%
- Activation of reporter gene CAT as a percentage of the reference compound (WY-14,643 2 μM = 100%) (mPPARαLBD/Gal4DBD; 100 μM): 280.9%
- melting point: 105 to 106 °C
SMILES: CC(C)(Sc1cccc(OCCc2ccc(Cl)cc2)c1)C(=O)O [Example 2, 2-[3-[2-(4-chlorophenyl)ethoxy]phenylthio]-2-methylpropanoic acid]
